Measured values published in ChEMBL document CHEMBL1144739, “[6]-gingerol induces Ca2+ mobilization in Madin-Darby canine kidney cells” (2008).
Active and inactive are the calls of the source. No cut-off for these calls is given here.

Assays:
[1] = test system: MDCK; experiment: Elevation of drug-induced intracellular calcium level in MDCK cells at 1 uM; format: functional, Canis lupus familiaris
[2] = test system: MDCK; experiment: Increase in drug-induced intracellular calcium level in dog MDCK cells in presence of extracellular calcium; format: functional, cell-based; details: Canis lupus familiaris
[3] = test system: MDCK; experiment: Increase in drug-induced intracellular calcium level in dog MDCK cells at 0.1 uM; format: functional, cell-based; details: Canis lupus familiaris
[4] = test system: MDCK; experiment: Increase in drug-induced intracellular calcium level in dog MDCK cells at 10 uM after 250 seconds; format: functional, Canis lupus familiaris
[5] = test system: MDCK; experiment: Inhibition of drug-induced intracellular calcium level in dog MDCK cells at 20 uM in absence of extracellular calcium; format: functional, Canis lupus familiaris; set-up: scale not given: the % may be the effect or the level left
[6] = test system: MDCK; experiment: Activation of protein kinase C in dog MDCK cells assessed as change in intracellular calcium level in presence of phorbol myristate acetate; format: cell-based; details: Canis lupus familiaris
[7] = test system: MDCK; experiment: Inhibition of protein kinase C in dog MDCK cells assessed as change in intracellular calcium level in presence of GF109203 X; format: cell-based; details: Canis lupus familiaris
[8] = test system: MDCK; experiment: Inhibition of phospholipase C in dog MDCK cells assessed as change in basal intracellular calcium level in presence of U73122; format: cell-based; details: Canis lupus familiaris

C/C=C(/C)C(=O)O[C@H]1C(C)=C2[C@H]([C@@H]1OC(=O)CCCCCCC)[C@@](C)(OC(C)=O)C[C@H](OC(=O)CCC)[C@@]1(O)[C@H]2OC(=O)[C@@]1(C)O [THAPSIGARGIN]
Activity [1]: 216 nM

CCCCC[C@H](O)CC(=O)CCc1ccc(O)c(OC)c1 [GINGEROL]
Activity [2]: Dose-dependent effect | Activity [3]: inactive | Activity [4]: 295 nM | Activity [5]: 78% | Activity [6]: Active | Activity [7]: Active | Activity [8]: inactive
